Results from PubChem BioAssay AID179 (DTP/NCI, 2004).
“And” between values parts separate entries of the source, which are not always exact repeats. Equal entries are not always repeated. The source made the active and inactive calls.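 The calls were made as follows: active = compounds giving half or more protection of infected cells from virus-caused growth loss, again on retest; inactive = the rest.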 Where a SMILES comes first, the peptide text is derived from it. Bridges are numbered along the chain shown (N, C = ends). [ ]: non-standard residue; d: D form. The star is where a group is joined. Cbz = O=C(OCc1ccccc1)*; Dab = NCC[CH](N)C(=O)O; Bn = c1ccc(C*)cc1

System: CEM cells HIV-1 protection, formazan growth assay
Assay: NCI AIDS Antiviral Assay
Settings: for IC50: measured here: growth of uninfected CEM cells
Summary of the method: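 Human CEM cells, uninfected and HIV-1-infected, received five drug concentrations, and growth was read by soluble formazan assay. Compounds giving at least 50% protection were retested; reproducible 100% protection defined confirmed active.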

Structure (SMILES)	EC50 [µM]	IC50	outcome
CCCCC(C)CCC(=O)C1=C(O)C(CC(=O)O)OC1=O (stereo not drawn)	> 83.2	> 83.2 µM	–
O=C1CCC2(c3ccc(Cl)cc3)Nc3ccc(Cl)cc3N12 (stereo not drawn)	> 16.2	> 16.2 µM	–
S=P1(Oc2ccccc2)OCCO1	> 617	> 617 µM	–
O=C(/C=C\c1ccc(-c2ccccc2)cc1)c1cccs1	> 200	11.2 µM	–
NC1CC(=O)c2c(Br)csc21 (stereo not drawn)	> 200	50.1 µM	–
CCOC(=O)C1(c2ccccc2)CCN(Cc2ccccc2)CC1	> 100	52.5 µM	–
CSC(SC)=C(C#N)C(N)=S	> 200	123 µM	–
CN(C)c1nc2oc(-c3ccccc3)c(-c3ccccc3)c2c2nncn12	> 151	> 151 µM	–
Cc1cc(C)c(C2=NO[C@H]3c4ccccc4OC[C@@H]23)c(C)c1	> 24.5	> 24.5 µM	–
CC(Cl)CN1c2ccccc2Sc2ccc(Cl)cc21 (stereo not drawn)	> 200	132 µM	–
Cc1cc(C)c2c(c1)CC1(Cc3ccc(C)c(C)c3C1=O)C2=O (stereo not drawn)	> 100	> 100 µM	–
N#Cc1nn(-c2ccc(Cl)cc2)c(N)c2c(=N)n3nc(-c4ccccc4)cc3nc12	> 9.12	> 9.12 µM	–
c1cc(-c2cn3ccsc3n2)ccn1	> 447	186 µM	–
O=C1C(Cl)=C(N2CCN(C3=C(Cl)C(=O)c4ccccc4C3=O)CC2)C(=O)c2ccccc21	> 7.76	1.32 µM	–
C=C(C)Cn1c(=O)n(CC(=C)C)c(=O)n(CC(=C)C)c1=O	> 200	81.3 µM	–
CC1=C(O[Si](C(C)C)(C(C)C)C(C)C)C2CC1[C@@H]1C(=O)N(c3ccccc3)C(=O)[C@H]21 (stereo partly drawn)	> 6.46	> 6.46 µM	–
COc1cc2c(cc1O)[C@H](Cc1ccc(Oc3cc(C[C@H]4c5cc(OC)c(OC)cc5CCN4C)ccc3OC)cc1)NCC2	–	–	inactive
CCc1cc(Cc2ccc(C)c(NC(=O)C(=O)C3C(=O)NC(=O)NC3=O)c2CC)cc(C)c1NC(=O)C(=O)C1C(=O)NC(=O)NC1=O	> 77.6	> 77.6 µM	–
O=S1(=O)CS(=O)(=O)OCCCCCO1	> 537	> 537 µM	–
C/C(O)=C(/C=N\C(=S)Nc1ccc(S(=O)(=O)Nc2nccs2)cc1)C(=O)Nc1ccccc1C	> 200	30.2 µM	–
O=C1CSC(c2cccc([N+](=O)[O-])c2)N1c1ccc(-n2c(-c3ccccc3)nc3ccccc3c2=O)cc1 (stereo not drawn)	> 200	> 200 µM	–

Structure (SMILES)	EC50 [µM]	IC50	outcome
O=c1oc2ccccc2c(O)c1C1=N/C(=N/N=C/c2ccc(Cl)cc2)SC1	> 200	> 200 µM	–
C=C1C(=O)C=C2C=C3C(=O)C(C)(C)C[C@]3(O)C12C (stereo partly drawn)	> 1020	0.389 µM	–
CCOC(OCC)[C@H](N)[C@@H](O)[C@@H](O)[C@H]1COC(C)(C)O1	> 200	> 200 µM	–
Cc1cc(S(=O)(=O)Nc2n[nH]c(Nc3ccc(Cl)cc3)n2)c(S)cc1Cl	> 100	> 100 µM	–
Cc1cccc(/C=N/NC(=S)NC(C)(C)C)n1	> 200	18.2 µM	–
COc1cccc(/C=N/[N-]C(N)=O)c1[O-].[Cu+2].[OH3+]	> 64.6	10.5 µM	–
CN(C)CCCNC(=O)c1cc(NC(=O)c2cc(NC(=O)c3cc(NC(=O)c4cccc(C(=O)Nc5cc(C(=O)Nc6cc(C(=O)Nc7cc(C(=O)NCCCN(C)C)n(C)c7)n(C)c6)n(C)c5)c4)cn3C)cn2C)cn1C	> 100	> 100 µM	–
O=C1OCCC1(Br)C(Br)c1ccccc1 (stereo not drawn)	> 200	6.03 µM	–
CC(C)(C)[Si](C)(C)OC1CCOC1(O)c1ccccn1 (stereo not drawn)	> 200	66.1 µM	–
COC1/C=C\C=C(/C)C(=O)NC2=CC(=O)C=C(C2=O)C(OC)C(C)CC(OC)C(OC)C(C)/C=C(/C)C1OC(N)=O (stereo not drawn)	> 63.1	0.407 µM	–
COc1ccc2c(c1)CCC1C=NOC21 (stereo not drawn)	> 245	107 µM	–
CC(C)(C)C1=CC(=N/N=c2\scc(-c3ccccc3)n2-c2ccccc2)C=C(C(C)(C)C)C1=O	> 15.1	> 15.1 µM	–
O=C1N=NC2=C1c1c3ccccc3c(O)n1CC2	> 200	166 µM	–
COc1cccc2c(NNc3ccccc3)c3ccc([N+](=O)[O-])cc3nc12	> 22.4	16.2 µM	–
Cc1c(C)c(C)c(Cn2[nH]c(=O)n(C)c2=O)c(C)c1C	> 200	> 200 µM	–
Clc1ccc(SSc2ccc(Cl)cc2Cl)c(Cl)c1	> 200	6.76 µM	–
CC(=O)Nc1ccc([As](=O)(O)O)cc1[N+](=O)[O-]	> 200	> 200 µM	–
CC(C)CC1NC(=O)C(Cc2ccccc2)NC(=O)C(Cc2ccccc2)NC(=O)C(NC(=O)C(Cc2ccc(OCc3ccccc3)cc2)NC(=O)OCc2ccccc2)CCNC1=O (stereo not drawn) (Cbz-Y(Bn)[Dab]FFL; lactam 2-C; configuration not given here)	> 100	> 100 µM	–
CC1(C)C=N[N+]2(C)C3C=CC(CC3)C12 (stereo not drawn)	–	–	inactive
CCc1c(C#N)c(=O)[nH]c(=O)n1CCN1CCN(C(=O)NCCCCCCNC(=O)N2CCN(CCn3c(CC)c(C#N)c(=O)[nH]c3=O)CC2)CC1	–	–	inactive
COc1cc2c(cc1OCCN1C(=O)c3cccc4cccc(c34)C1=O)N=C[C@@H]1CCCN1C2=O	> 41.7	5.5 µM	–

Structure (SMILES)	EC50 [µM]	IC50	outcome
COC(=O)C1(SC)C2CCC3C2CCC31 (stereo not drawn)	> 200	> 200 µM	–
Cc1ccccc1C=C1C(=O)NC(=O)NC1=O	> 407	> 407 µM	–
CC(NCCNC(C)c1cccnc1)c1cccnc1 (stereo not drawn)	> 200	> 200 µM	–
COc1ccc2ccccc2c1Br	> 200	> 200 µM	–
COc1c(O)c2c(=O)cc(OC)c3c4c(OC)cc(=O)c5c(O)c(OC)c6c(c(c1C(C(C)O)C6C(C)O)c23)c54 (stereo not drawn)	> 2	0.339 µM	–
O=C(/C=C/c1ccccc1)CCC1C(=O)NC(=S)NC1=O	> 85.1	> 85.1 µM	–
C/C=C1\Oc2ccc(OC)cc2S1(=O)=O	17	31.6 µM	–
Cc1ccc(S(=O)(=O)N/N=C/CN2C(=O)c3ccccc3C2=O)cc1	182	191 µM	–
COC(=O)C(C(=O)C(=O)Nc1cccc(OC)c1)c1cnc2ccccc2n1 (stereo not drawn)	> 69.2	> 69.2 µM	–
BrC1=CCC23CC=C(Br)[C@H]4CC2(COC3)C[C@@H]1O4 (stereo partly drawn)	> 200	25.1 µM	–
CCOC(=O)C(Cl)(NC(=O)c1ccc(F)cc1)C(F)(F)F (stereo not drawn)	> 200	> 200 µM	–
COc1cc(OC)cc(-n2c(N)c(-c3nc4ccccc4n3C)c3ccc([N+](=O)[O-])cc3c2=O)c1	> 200	> 200 µM	–
N#CC1=C(S)N(C2OC(CO)C(O)C(O)C2O)C(c2ccccc2)=CC1c1cccs1 (stereo not drawn)	> 200	27.5 µM	–
O=C(NNC(=O)c1ccccc1O)c1cccs1	> 200	16.2 µM	–
O=C1NC(=O)C(=Cc2ccccc2F)C(=O)N1	> 1070	> 1070 µM	–
Cc1nc(-n2nc(-c3ccccc3)cc2-c2ccccc2)sc1C(/C=C/c1ccc([N+](=O)[O-])cc1)=N/NC(N)=S	> 33.1	26.9 µM	–
CCOC(=O)C(NC(=O)NC(C(=O)OCC)C(=O)OCC)C(=O)OCC	> 200	> 200 µM	–
CC(C)(c1ccccc1)c1ccc(Oc2ccc3c(c2)-c2nc-3nc3[nH]c(nc4nc(nc5[nH]c(n2)c2ccc(Oc6ccc(C(C)(C)c7ccccc7)cc6)cc52)-c2cc(Oc5ccc(C(C)(C)c6ccccc6)cc5)ccc2-4)c2ccc(Oc4ccc(C(C)(C)c5ccccc5)cc4)cc32)cc1	> 2.63	> 2.63 µM	–
CS(=O)(=O)OC1CCC2(C#N)CCC1C2=O (stereo not drawn)	> 1020	> 1020 µM	–
O=[n+]1c2c(n([O-])c3ccc4ccccc4c31)-c1cccc3cccc-2c13	> 100	> 100 µM	–
BrN1C2c3ccccc3C1c1ccccc12	–	–	inactive

Structure (SMILES)	EC50 [µM]	IC50	outcome
CN(C)CC(C)(C)/C(=N\Nc1ccccc1)c1ccccc1	–	–	inactive
COc1ccc(C(=O)C(CC2C(=O)CC(C)(C)C(C(=O)C(=O)Nc3c(C)cccc3C)C2=O)c2ccc(OC)cc2)cc1 (stereo not drawn)	> 427	372 µM	–
CCOC(=O)NC(Nc1ccc(C(=O)O)cc1)(C(F)(F)F)C(F)(F)F	> 200	> 200 µM	–
COc1cc2c3cc1Oc1c(O)c(OC)cc4c1[C@H](Cc1ccc(cc1)Oc1cc(ccc1O)C[C@H]3N(C)CC2)N(C)CC4	–	–	inactive
Cc1nc(-c2cccnc2)sc1C(=O)/C=C/c1ccc(Cl)cc1Cl	> 19.1	> 19.1 µM	–
CC1(C)C(=C(C#N)C#N)C(C)(C)C1=C(C#N)C#N	> 100	> 100 µM	–
Cc1cc(C)[s+]s1	> 200	112 µM and 182 µM	–
COC(=O)[C@@H]1O[C@]12C(CO[Si](C)(C)C(C)(C)C)OC(n1ccc(=O)[nH]c1=O)C2O[Si](C)(C)C(C)(C)C (stereo partly drawn)	> 200	9.77 µM	–
COC(=O)C1=NC(=S)N=C(C(=O)OC)C12Cc1ccccc1C2=O	> 724	214 µM	–
COC1=C2C[C@](OC)(C#CC=CC#CC2O)CC1(C)C (stereo partly drawn)	> 200	97.7 µM	–
COc1ccc2c(ccc3c(C(=O)NCCN(C)CCNC(=O)c4cn(C)c5c4ccc4cc(OC)ccc45)cn(C)c32)c1	> 200	1.15 µM	–
CC1CCCCNC1=S (stereo not drawn)	> 200	> 200 µM	–
Cc1n(-c2ccccc2)c2c([n+]1Cc1ccc([N+](=O)[O-])cc1)C(=O)c1ccccc1C2=O	> 70.8	3.63 µM	–
c1ccc(P2(c3ccccc3)=NSN=S=N2)cc1	> 200	74.1 µM	–
C=CCN1/C(=C2\SC(=S)N(c3ccc(C)cc3)C2=O)Sc2c1nc[nH]c2=O	> 2.51	> 2.51 µM	–
CCOc1ccc(N=Nc2ccc3oc(=O)c(/C(C)=N/NC(=O)CC(=O)Nc4cccc(OC)c4)cc3c2)cc1	> 13.2	> 13.2 µM	–
CC(=O)NCCC1CN(C(=O)/C=C/I)c2ccccc21 (stereo not drawn)	> 200	1.1 µM	–
O=C1C2C(C(=O)N1c1ccccc1)C1(Br)c3ccccc3C2(Br)C2C(=O)N(c3ccccc3)C(=O)C21 (stereo not drawn)	–	–	inactive
O=c1[nH][n+]([O-])cc2c(C(O)=C(O)O)c[nH]c12	–	–	inactive
c1ccc(C2(c3ccccc3)OCCO2)cc1	> 200	> 200 µM	–
